Patent US11000033B2, “Ketone or oxime compound, and herbicide” (NISSAN CHEMICAL CORPORATION, priority 2014, dated 2021)

How the values were obtained:
Format in all cases: in vivo
[1] = system: Echinochloa crus-galli var. crus-galli; assay: Test Example 3: herbicidal effect by foliage application, Wagner pot (symbol H); details: application herbicide amount 320 g/ha, Table 24
Summary of the method: (§1)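 Weeds and rice were sown in alluvial soil under 0.1–0.5 cm of standing water and grown for 14 days in a 25–30 °C greenhouse. An emulsion of the compound, diluted in water to a set dose, was sprayed evenly onto the foliage. Effect was scored against fixed criteria 3 weeks after treatment.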

[2] = system: Veronica persica; assay: Test Example 5: herbicidal effect by foliage application, plastic box (symbol R); details: 320 g/ha, 3 weeks after application
Summary of the method: (§2)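 Effect is rated 3 weeks after a foliar spray of water-diluted emulsion concentrate at a predetermined herbicide amount. Plants had grown 14 days in a 25° C. to 30° C. greenhouse from seed in sterilized diluvial soil.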

[3] = system: Echinochloa oryzacola Vasing.; assay: Test Example 1: herbicidal activity, application before weed generation in submerged conditions (symbol A); details: application herbicide amount 320 g/ha
Summary of the method: (§3)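 Paddy pre-emergence test. Formulated emulsion, water-diluted to a predetermined rate, is applied to floodwater on sowing day; rice transplanted at 2.5 leaves. Effect read at 3 weeks on a 0–5 herbicidal-ratio scale.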

[4] = system: Apera spica-venti; assay: Test Example 5: herbicidal effect by foliage application, plastic box (symbol L); details: 320 g/ha, 3 weeks after application
Summary of the method: as §2

[5] = system: Monochoria vaginalis; assay: Test Example 1: herbicidal activity, application before weed generation in submerged conditions (symbol C); details: application herbicide amount 320 g/ha
Summary of the method: as §3

[6] = system: rice plant; assay: Test Example 5: effect on crop by foliage application, plastic box (symbol b); details: 320 g/ha, 3 weeks after application
Summary of the method: (§4)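 Seeds were sown in spots in sterilized diluvial soil held in a plastic box 21 cm × 13 cm × 7 cm deep, covered with about 1.5 cm of soil, and grown in a greenhouse at 25° C. to 30° C.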

[7] = system: Digitaria ciliaris; assay: Test Example 5: herbicidal effect by foliage application, plastic box (symbol F); details: 320 g/ha, 3 weeks after application
Summary of the method: as §2

[8] = system: Cyperus difformis; assay: Test Example 3: herbicidal effect by foliage application, Wagner pot (symbol E); details: application herbicide amount 320 g/ha, Table 24
Summary of the method: as §1

[9] = system: Monochoria vaginalis; assay: Test Example 2: herbicidal activity, application during weed generation in submerged conditions (symbol C); details: Table 23; application herbicide amount 320 g/ha; grade 0-5 by criteria of Test Example 1
Summary of the method: (§5)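 Alluvial soil in pots was flooded to a 4 cm water depth and sown with a mix of the three weed species, then grown in a greenhouse at 25° C. to 30° C. At the one- to two-leaf stage, an emulsifiable formulation diluted in water to a set dose was applied to the water surface. Effects were scored visually 3 weeks later.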

[10] = system: Alopecurus myosuroides; assay: Test Example 5: herbicidal effect by foliage application, plastic box (symbol J); details: 320 g/ha, 3 weeks after application
Summary of the method: as §2

[11] = system: corn; assay: Test Example 5: effect on crop by foliage application, plastic box (symbol c); details: 320 g/ha, 3 weeks after application
Summary of the method: as §4

[12] = system: Setaria viridis; assay: Test Example 5: herbicidal effect by foliage application, plastic box (symbol G); details: 320 g/ha, 3 weeks after application
Summary of the method: as §2

[13] = system: Avena fatua; assay: Test Example 5: herbicidal effect by foliage application, plastic box (symbol I); details: 320 g/ha, 3 weeks after application
Summary of the method: as §2

[14] = system: Abutilon theophrasti; assay: Test Example 5: herbicidal effect by foliage application, plastic box (symbol M); details: 320 g/ha, 3 weeks after application
Summary of the method: as §2

[15] = system: transplanted rice plant; assay: Test Example 1: effect on crop, application before weed generation in submerged conditions (symbol a); details: application herbicide amount 320 g/ha
Summary of the method: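 Alluvial soil pots flooded to 4 cm water, sown with Echinochloa oryzacola, Scirpus juncoides and Monochoria vaginalis, then transplanted with 2.5 leaf stage rice seedlings; pre-emergence application. Greenhouse 25° C. to 30° C.; scored 0–5 by herbicidal ratio 3 weeks after application.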

[16] = system: Stellaria media; assay: Test Example 5: herbicidal effect by foliage application, plastic box (symbol P); details: 320 g/ha, 3 weeks after application
Summary of the method: as §2

[17] = system: Leptochloa chinensis; assay: Test Example 3: herbicidal effect by foliage application, Wagner pot (symbol D); details: application herbicide amount 320 g/ha, Table 24
Summary of the method: as §1

[18] = system: Amaranthus retroflexus; assay: Test Example 5: herbicidal effect by foliage application, plastic box (symbol N); details: 320 g/ha, 3 weeks after application
Summary of the method: as §2

[19] = system: beet; assay: Test Example 5: effect on crop by foliage application, plastic box (symbol f); details: 320 g/ha, 3 weeks after application
Summary of the method: as §4

[20] = system: directly sowed rice plant; assay: Test Example 3: effect on crop by foliage application, Wagner pot (symbol b); details: application herbicide amount 320 g/ha, Table 24
Summary of the method: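 Plants are raised from seed in flooded paddy conditions: water stands 0.1–0.5 cm over alluvial soil, and the pot is kept in a greenhouse at 25–30 °C. Species sown are barnyardgrass (E. crus-galli var. crus-galli), Leptochloa chinensis, Cyperus difformis and rice.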

[21] = system: Echinochloa crus-galli var. crus-galli; assay: Test Example 5: herbicidal effect by foliage application, plastic box (symbol H); details: 320 g/ha, 3 weeks after application
Summary of the method: as §2

[22] = system: Galium spurium; assay: Test Example 5: herbicidal effect by foliage application, plastic box (symbol Q); details: 320 g/ha, 3 weeks after application
Summary of the method: as §2

[23] = system: Scirpus juncoides; assay: Test Example 2: herbicidal activity, application during weed generation in submerged conditions (symbol B); details: Table 23; application herbicide amount 320 g/ha; grade 0-5 by criteria of Test Example 1
Summary of the method: as §5

[24] = system: rapeseed; assay: Test Example 5: effect on crop by foliage application, plastic box (symbol g); details: 320 g/ha, 3 weeks after application
Summary of the method: as §4

[25] = system: Lolium multiflorum Lam.; assay: Test Example 5: herbicidal effect by foliage application, plastic box (symbol K); details: 320 g/ha, 3 weeks after application
Summary of the method: as §2

[26] = system: Scirpus juncoides; assay: Test Example 1: herbicidal activity, application before weed generation in submerged conditions (symbol B); details: application herbicide amount 320 g/ha
Summary of the method: as §3

[27] = system: Chenopodium album; assay: Test Example 5: herbicidal effect by foliage application, plastic box (symbol O); details: 320 g/ha, 3 weeks after application
Summary of the method: as §2

[28] = system: Echinochloa oryzacola Vasing.; assay: Test Example 2: herbicidal activity, application during weed generation in submerged conditions (symbol A); details: Table 23; application herbicide amount 320 g/ha; grade 0-5 by criteria of Test Example 1
Summary of the method: as §5

[29] = system: soybean; assay: Test Example 5: effect on crop by foliage application, plastic box (symbol d); details: 320 g/ha, 3 weeks after application
Summary of the method: as §4

[30] = system: wheat; assay: Test Example 5: effect on crop by foliage application, plastic box (symbol e); details: 320 g/ha, 3 weeks after application
Summary of the method: as §4

Structure (SMILES): COCCON=C(CC1CC(O)=C(c2c(C)cc(Br)cc2C)C1=O)C(C)C (stereo not drawn) [9-018]
- H (Echinochloa crus-galli var. crus-galli) herbicidal effect grade [1]: 2 (Herbicidal ratio of 20% or higher and lower than 40%)
- R: Veronica persica, herbicidal effect grade [2]: 0 (Herbicidal ratio of 5% or lower (almost no effect))
- A (Echinochloa oryzacola Vasing.) herbicidal effect grade [3]: 1 (Herbicidal ratio of 5% or higher and lower than 20%)
- L: Apera spica-venti, herbicidal effect grade [4]: 0 (Herbicidal ratio of 5% or lower (almost no effect))
- C (Monochoria vaginalis) herbicidal effect grade [5]: 0 (Herbicidal ratio of 5% or lower (almost no effect))
- b: directly sowed rice plant, effect on crop grade [6]: 3 (Herbicidal ratio of 40% or higher and lower than 70%)
- F: Digitaria ciliaris, herbicidal effect grade [7]: 0 (Herbicidal ratio of 5% or lower (almost no effect))
- E herbicidal effect grade [8]: 0 (Herbicidal ratio of 5% or lower (almost no effect))
- Herbicidal effect grade, C: Monochoria vaginalis [9]: 0 (Herbicidal ratio of 5% or lower (almost no effect))
- J: Alopecurus myosuroides, herbicidal effect grade [10]: 1 (Herbicidal ratio of 5% or higher and lower than 20%)
- c: corn, effect on crop grade [11]: 3 (Herbicidal ratio of 40% or higher and lower than 70%)
- G: Setaria viridis, herbicidal effect grade [12]: 3 (Herbicidal ratio of 40% or higher and lower than 70%)
- I: Avena fatua, herbicidal effect grade [13]: 3 (Herbicidal ratio of 40% or higher and lower than 70%)
- M: Abutilon theophrasti, herbicidal effect grade [14]: 0 (Herbicidal ratio of 5% or lower (almost no effect))
- a (transplanted rice plant) effect on crop grade [15]: 2 (Herbicidal ratio of 20% or higher and lower than 40%)
- P: Stellaria media, herbicidal effect grade [16]: 1 (Herbicidal ratio of 5% or higher and lower than 20%)
- D (Leptochloa chinensis) herbicidal effect grade [17]: 0 (Herbicidal ratio of 5% or lower (almost no effect))
- N: Amaranthus retroflexus, herbicidal effect grade [18]: 0 (Herbicidal ratio of 5% or lower (almost no effect))
- f: beet, effect on crop grade [19]: 0 (Herbicidal ratio of 5% or lower (almost no effect))
- b (directly sowed rice plant) effect on crop grade [20]: 4 (Herbicidal ratio of 70% or higher and lower than 90%)
- H: Echinochloa crus-galli var. crus-galli, herbicidal effect grade [21]: 3 (Herbicidal ratio of 40% or higher and lower than 70%)
- Q: Galium spurium, herbicidal effect grade [22]: 0 (Herbicidal ratio of 5% or lower (almost no effect))
- Herbicidal effect grade, B: Scirpus juncoides [23]: 0 (Herbicidal ratio of 5% or lower (almost no effect))
- g: rapeseed, effect on crop grade [24]: 0 (Herbicidal ratio of 5% or lower (almost no effect))
- K: Lolium multiflorum Lam., herbicidal effect grade [25]: 1 (Herbicidal ratio of 5% or higher and lower than 20%)
- B (Scirpus juncoides) herbicidal effect grade [26]: 0 (Herbicidal ratio of 5% or lower (almost no effect))
- O: Chenopodium album, herbicidal effect grade [27]: 0 (Herbicidal ratio of 5% or lower (almost no effect))
- Herbicidal effect grade, A: Echinochloa oryzacola Vasing. [28]: 1 (Herbicidal ratio of 5% or higher and lower than 20%)
- d: soybean, effect on crop grade [29]: 0 (Herbicidal ratio of 5% or lower (almost no effect))
- e: wheat, effect on crop grade [30]: 0 (Herbicidal ratio of 5% or lower (almost no effect))
